Test results from patent EP0423524A2, “Propiophenone derivatives and their preparation and pharmaceutical use” (MARUHO Co., Ltd., priority 1989, dated 1991).
Counter-ions that a name gives are not always drawn.

Experiments:
Assay type in all cases: in vivo
[1] = test system: Male Slc-ddy mice; test: Inhibitory effect on the motor coordination (rotating rod test); conditions: for Inhibitory effect on motor coordination Effect: 300 - 600 mg/10 ml/kg oral, 30 min, compared with eperisone hydrochloride; for Inhibitory effect on motor coordination Durability / ED50 / inhibitory effect on the motor coordination compared with eperisone hydrochloride: oral; for ED50: Mus musculus, 0.5 h, rotating rod 30 min after administration, falling off within 60 s counted as positive, 95% confidence limit in brackets, read-out: ED₅₀ values for the inhibitory effect on the motor coordination
Method: Male Slc-ddy mice of 20 - 25 g (5 weeks old) were used in groups of 7 - 10. The test compounds were used dissolved or suspended in 0.5 % CMC or 0.5 % Tween 80 solution. Each test compound (300 - 600 mg/10 ml/kg) was orally administered to the mice, and after 30 min the mice were put on a 3-cm diameter rod rotating at a speed of 10 min⁻¹ in a direction opposite to the rotation direction, and the time of staying on it was measured to a maximum of 180 s. Those falling off of the rotating rod within 60 s were judged as having an inhibitory effect on the motor coordination and, with the number of cases as index, comparison was made with the reference compound (eperisone hydrochloride).
The mice were trained in advance to be able to stay on the rotating rod for more than 300 s, and those capable of staying on it for more than 250 s immediately before testing were used.

[2] = test system: Male Slc-ddy mice; test: Anti-nicotinic effect (survival after intravenous nicotine bitartrate); conditions: for anti-nicotinic effect compared with eperisone hydrochloride / Anti-nicotinic effect Effect: 100 mg/10 ml/kg oral; for Anti-nicotinic effect Effect: 30 min, compared with eperisone hydrochloride; for ED50: Mus musculus, 0.5 h, oral, nicotine bitartrate 3 mg/10 ml/kg i.v. after 30 min, Litchfield-Wilcoxon, 95 % confidence limit in brackets, read-out: ED₅₀ values for the anti-nicotinic effect
Method: Experimental Method of Male Slc-ddy mice/30 - 35 g (6 weeks old) were used as test animals in groups of 7 - 10. The test compounds (100 mg/10 ml/kg) were orally administered to the mice, and after 30 min, nicotine bitartrate (3 mg/10 ml/kg) was administered intravenously, and the number of animals killed due to tonic convulsion was counted. The surviving animals were judged as having an anti-nicotinic effect, and with the number thereof as index the comparison concerning the anti-nicotinic effect was made with the reference compound (eperisone hydrochloride).

[3] = test system: Male Slc-ddy mice; test: Anti-strychnine effect (time from tonic convulsions to death after subcutaneous strychnine nitrate); conditions: for ED50: Mus musculus, po, 0.5 h, read-out: ED₅₀ values for the anti-strychnine effect; for anti-strychnine effect compared with eperisone hydrochloride / Anti-strychnine effect Effect: mice, 100 mg/10 ml/kg oral; for Anti-strychnine effect Effect: 30 min, compared with eperisone hydrochloride
Method: Strychnine is known to enhance reflex stimulation, among others, of spinal cord to induce convulsions. If this effect of strychnine can be suppressed by administration of any of the above-mentioned compounds, this compound is expected to have a central muscle relaxation effect.
Male Slc-ddy mice of 25 - 30 g (5 weeks old) were used in groups of 7 - 10.
The test compounds (100 mg/10 ml/kg) were orally administered to the mice, and after 30 min, 1.5 mg/10 ml/kg of strychnine nitrate was administered subcutaneously, and the time was measured from the occurence of tonic convulsions to the death of the animals. Cases in which this time was extended to 6 min or more were judged as corresponding to an anti-strychnine effect, and with the number of such cases as index, comparison was made with the reference compound (eperisone hydrochloride). […] The ED₅₀ values (95% confidence limit) for the anti-strychnine effect were determined by the Litchfield-Wilcoxon method and are shown in Table 3.

[4] = Acute toxicity test; conditions: mouse, in vivo, po, mice, observation for 7 days, Litchfield-Wilcoxon, 95% confidence limit in brackets, read-out: LD₅₀ values (50% of lethal dose)
Method: Male ddy mice of 20-30 g were used as test animals in groups of 5-10. The test compounds were dissolved or suspended in 0.5 % Tween 80 aqueous solution, and orally administered to the mice. Observation was made for 7 days after administration. The LD₅₀ values (50% of lethal dose) (95% confidence limit) were determined by the Litchfield-Wilconxon method, and are shown in Table 4.

Row | SMILES | Inhibitory effect on motor coordination Effect [1] | Inhibitory effect on motor coordination Durability [1] | Anti-nicotinic effect Effect [2] | also measured
1 | CCc1ccc(C(=O)C(C)CN2CCN(CC(C)C(=O)c3ccc(CC)cc3)CC2)cc1.Cl.Cl (stereo not drawn) [Compound 1, N,N'-bis[2-(4-ethylbenzoyl)-propyl]-piperazine dihydrochloride] | 0 | - |  | 
2 | CCc1ccc(C(=O)C(C)Cn2ccnc2)cc1 (stereo not drawn) [Compound 2, 1-(4-ethylphenyl)-3-(1H-imidazol-1-yl)-2-methylpropan-1-one] | 0 |  | ◎ | ED50 [1]: 200 mg/kg; inhibitory effect on the motor coordination compared with eperisone hydrochloride [1]: stronger inhibitory effect on the motor coordination than eperisone hydrochloride; anti-nicotinic effect compared with eperisone hydrochloride [2]: stronger anti-nicotinic effect than eperisone hydrochloride; ED50 [2]: 26 mg/kg; ED50 [3]: 135 mg/kg; anti-strychnine effect compared with eperisone hydrochloride [3]: stronger anti-strychnine effect than eperisone hydrochloride; Anti-strychnine effect Effect [3]: ◎; LD50 at 168 h [4]: 218 mg/kg
3 | CC(Cn1ccnc1)C(=O)c1ccc(Cl)cc1 (stereo not drawn) [Compound 3, hydrochloride] | 0 |  | 0 | 
4 | CCc1ccc(C(=O)C(CC)CN2CCCCC2)cc1.Cl (stereo not drawn) [Compound 4, 2-ethyl-1-(4-ethylphenyl)-3-piperidinopropan-1-one hydrochloride] | 0 | - | 0 | 
5 | CCc1ccc(C(=O)C(CN2CCCCC2)C(C)C)cc1 (stereo not drawn) [Compound 5, 1-(4-ethylphenyl)-2-isopropyl-3-piperidinopropan-1-one] | 0 | - | 0 | 
6 | CCc1ccc(C(=O)C(C)(C)CN2CCCCC2)cc1 [Compound 6, 1-(4-ethylphenyl)-2,2-dimethyl-3-piperidinopropan-1-one] | ◎ |  | 0 | 
7 | CCc1ccc(C(=O)C(CN2CCCCC2)c2ccccc2)cc1.Cl (stereo not drawn) [Compound 7, 1-(4-ethylphenyl)-2-phenyl-3-piperidinopropan-1-one hydrochloride] | 0 | - | 0 | 
8 | CC(Cn1ccnc1)C(=O)c1ccccc1 (stereo not drawn) [Compound 8, 3-(1H-imidazol-1-yl)-2-methyl-1-phenyl-propan-1-one] | 0 |  |  | 
9 | CCCc1ccc(C(=O)C(C)Cn2ccnc2)cc1 (stereo not drawn) [Compound 9, 3-(1H-imidazol-1-yl)-2-methyl-1-(4-n-propylphenyl)-propan-1-one] | 0 |  | ◎ | 
10 | CC(Cn1ccnc1)C(=O)c1ccc(C(C)C)cc1 (stereo not drawn) [Compound 10, 3-(1H-imidazol-1-yl)-1-(4-isopropylphenyl)-2-methylpropan-1-one] | 0 |  | 0 | 
11 | CC(Cn1ccnc1)C(=O)c1ccc(C(C)(C)C)cc1 (stereo not drawn) [Compound 11, 1-(4-t-butylphenyl)-3-(1H-imidazol-1-yl)-2-methylpropan-1-one] | 0 |  |  | Anti-strychnine effect Effect [3]: 0
12 | CC(Cn1ccnc1)C(=O)c1ccc(-c2ccccc2)cc1 (stereo not drawn) [Compound 12, 1-(4-biphenyl)-3-(1H-imidazol-1-yl)-2-methylpropan-1-one] |  | - | ◎ | 
13 | Cc1ccc(C(=O)C(C)Cn2ccnc2)c(C)c1.Cl (stereo not drawn) [Compound 13, 3-(1H-imidazol-1-yl)-2-methyl-1-(2,4-dimethylphenyl)-propan-1-one hydrochloride] | 0 | - | ◎ | 
14 | Cc1ccc(C(=O)C(C)Cn2ccnc2)cc1C (stereo not drawn) [Compound 14, 3-(1H-imidazol-1-yl)-2-methyl-1-(3,4-dimethylphenyl)-propan-1-one] | 0 |  | ◎ | ED50 [1]: 100 mg/kg; inhibitory effect on the motor coordination compared with eperisone hydrochloride [1]: stronger inhibitory effect on the motor coordination than eperisone hydrochloride; anti-nicotinic effect compared with eperisone hydrochloride [2]: stronger anti-nicotinic effect than eperisone hydrochloride; ED50 [2]: 32 mg/kg; ED50 [3]: 33 mg/kg; anti-strychnine effect compared with eperisone hydrochloride [3]: stronger anti-strychnine effect than eperisone hydrochloride; Anti-strychnine effect Effect [3]: ◎; LD50 at 168 h [4]: 209 mg/kg
15 | CC(Cn1ccnc1)C(=O)c1ccc2ccccc2c1 (stereo not drawn) [Compound 15, 3-(1H-imidazol-1-yl)-2-methyl-1-(2-naphthyl)-propan-1-one] | 0 | - | ◎ | ED50 [1]: 152 mg/kg; inhibitory effect on the motor coordination compared with eperisone hydrochloride [1]: stronger inhibitory effect on the motor coordination than eperisone hydrochloride; Anti-strychnine effect Effect [3]: ◎
16 | Cc1ccc(C(=O)C(C)Cn2ccnc2)cc1 (stereo not drawn) [Compound 16, 3-(1H-imidazol-1-yl)-2-methyl-1-(4-methylphenyl)-propan-1-one] | ◎ |  | ◎ | 
17 | CCc1ccc(C(=O)CCn2ccnc2)cc1 [Compound 17, 1-(4-ethylphenyl)-3-(1H-imidazol-1-yl)-propan-1-one] | ○ | - | ○ | 
18 | CCc1ccc(C(=O)C(CC)Cn2ccnc2)cc1.Cl (stereo not drawn) [Compound 18, 2-ethyl-1-(4-ethylphenyl)-3-(1H-imidazol-1-yl)-propan-1-one hydrochloride] | ◎ |  | ◎ | 
19 | CCc1ccc(C(=O)C(Cn2ccnc2)c2ccccc2)cc1 (stereo not drawn) [Compound 19, 1-(4-ethylphenyl)-3-(1H-imidazol-1-yl)-2-phenylpropan-1-one] | ◎ | - | ◎ | 
20 | CC(Cn1ccnc1)C(=O)c1ccc2c(c1)Cc1ccccc1-2 (stereo not drawn) [Compound 20, 1-(9H-fluoren-2-yl)-3-(1H-imidazol-1-yl)-2-methylpropan-1-one] | ◎ | - | ◎ | Anti-strychnine effect Effect [3]: ○
21 | CCc1ccc(C(=O)C(C)n2ccnc2)cc1.Cl (stereo not drawn) [Compound 21, 1-(4-ethylphenyl)-2-(1H-imidazol-1-yl)-propan-1-one hydrochloride] |  | - | ◎ | 
22 | CCc1ccc(C(O)C(C)Cn2ccnc2)cc1 (stereo not drawn) [Compound 22, 1-(4-ethylphenyl)-3-(1H-imidazol-1-yl)-2-methylpropan-1-ol] | ◎ |  | ◎ | inhibitory effect on the motor coordination compared with eperisone hydrochloride [1]: stronger inhibitory effect on the motor coordination than eperisone hydrochloride; Anti-strychnine effect Effect [3]: ○
23 | CCc1ccc(C2(C(C)Cn3ccnc3)OCCO2)cc1 (stereo not drawn) [Compound 23] | ◎ |  | ◎ | ED50 [1]: 210 mg/kg; inhibitory effect on the motor coordination compared with eperisone hydrochloride [1]: stronger inhibitory effect on the motor coordination than eperisone hydrochloride; anti-nicotinic effect compared with eperisone hydrochloride [2]: stronger anti-nicotinic effect than eperisone hydrochloride; ED50 [2]: 46 mg/kg; ED50 [3]: 155 mg/kg; anti-strychnine effect compared with eperisone hydrochloride [3]: stronger anti-strychnine effect than eperisone hydrochloride; Anti-strychnine effect Effect [3]: ○; LD50 at 168 h [4]: 415 mg/kg
24 | CCc1ccc(C(=O)C(CN2CCCC2)c2ccccc2)cc1.Cl (stereo not drawn) [Compound 24, 1-(4-ethylphenyl)-2-phenyl-3-(pyrrolidin-1-yl)-propan-1-one hydrochloride] | ○ |  | ○ | 
25 | CC(C)(CN1CCCC1)C(=O)c1ccc(Cl)cc1 [Compound 25, 1-(4-chlorophenyl)-2,2-dimethyl-3-(pyrrolidin-1-yl)-propan-1-one] | ◎ |  | ○ | 
26 | CCc1ccc(C(=O)C(C)Cn2ccnc2C)cc1 (stereo not drawn) [Compound 26, 1-(4-ethylphenyl)-2-methyl-3-(2-methyl-1H-imidazol-1-yl)-propan-1-one] | ◎ | - | ◎ | 
27 | CCc1ccc(C(=O)C(C)Cn2cncn2)cc1 (stereo not drawn) [Compound 27, 1-(4-ethylphenyl)-2-methyl-3-(1H-1,2,4-triazol-1-yl)-propan-1-one] | ○ | - | ○ | 
